Source: ChEMBL document CHEMBL4823249, “Discovery of a Pyrimidinedione Derivative as a Potent and Orally Bioavailable Axl Inhibitor” (J Med Chem, 2021)
pIC50: −log10 of the molar value.

Experiments:
BaF3 [1] = assay: Antiproliferative activity against mouse BaF3/TEL-AXL cells incubated for 72 hrs by SRB or CCK8 assay; details: BaF3, 72 h
BaF3 [2] = assay: Antitumor activity against mouse BaF3/TEL-AXL cells xenografted in BALB/c nude mouse assessed as tumor growth inhibition at 50 mg/kg, po administered once daily for 14 days by caliper method; assay type: functional; details: 336 h, time 14 day, read-out: TGI
U-87 MG = assay: Antitumor activity against human U-87MG cells xenografted in BALB/c nude mouse assessed as tumor growth inhibition at 50 mg/kg, po administered once daily for 14 days by caliper method; assay type: functional, U-87MG ATCC; details: 336 h, time 14 day, read-out: TGI
[3] = AUC(0 to t) in Sprague-Dawley rat at 3 mg/kg, po measured upto 24 hrs by LC-MS analysis; assay type: ADME, organism-based; parameters: route oral, dose 3 mg/kg, time <=24; details: in vivo
[4] = Tmax in Sprague-Dawley rat at 3 mg/kg, po measured upto 24 hrs by LC-MS analysis; assay type: ADME, organism-based; details: in vivo
[5] = Cmax in Sprague-Dawley rat at 3 mg/kg, po measured upto 24 hrs by LC-MS analysis; assay type: ADME, organism-based; parameters: route oral, dose 3 mg/kg, time <=24; details: in vivo
[6] = Half life in Sprague-Dawley rat at 3 mg/kg, po measured upto 24 hrs by LC-MS analysis; assay type: ADME, organism-based; details: in vivo
[7] = AUC(0 to infinity) in Sprague-Dawley rat at 3 mg/kg, po measured upto 24 hrs by LC-MS analysis; assay type: ADME, organism-based; parameters: route oral, dose 3 mg/kg, time <=24; details: in vivo
[8] = molecular target: T1, Tyrosine-protein kinase receptor UFO (Homo sapiens, UniProt P30530); assay: Inhibition of AXL (unknown origin) using poly [Glu, Tyr] 4:1 as substrate incubated for 60 mins in presence of ATP by ELISA
T1 sequence (P30530 whole entry): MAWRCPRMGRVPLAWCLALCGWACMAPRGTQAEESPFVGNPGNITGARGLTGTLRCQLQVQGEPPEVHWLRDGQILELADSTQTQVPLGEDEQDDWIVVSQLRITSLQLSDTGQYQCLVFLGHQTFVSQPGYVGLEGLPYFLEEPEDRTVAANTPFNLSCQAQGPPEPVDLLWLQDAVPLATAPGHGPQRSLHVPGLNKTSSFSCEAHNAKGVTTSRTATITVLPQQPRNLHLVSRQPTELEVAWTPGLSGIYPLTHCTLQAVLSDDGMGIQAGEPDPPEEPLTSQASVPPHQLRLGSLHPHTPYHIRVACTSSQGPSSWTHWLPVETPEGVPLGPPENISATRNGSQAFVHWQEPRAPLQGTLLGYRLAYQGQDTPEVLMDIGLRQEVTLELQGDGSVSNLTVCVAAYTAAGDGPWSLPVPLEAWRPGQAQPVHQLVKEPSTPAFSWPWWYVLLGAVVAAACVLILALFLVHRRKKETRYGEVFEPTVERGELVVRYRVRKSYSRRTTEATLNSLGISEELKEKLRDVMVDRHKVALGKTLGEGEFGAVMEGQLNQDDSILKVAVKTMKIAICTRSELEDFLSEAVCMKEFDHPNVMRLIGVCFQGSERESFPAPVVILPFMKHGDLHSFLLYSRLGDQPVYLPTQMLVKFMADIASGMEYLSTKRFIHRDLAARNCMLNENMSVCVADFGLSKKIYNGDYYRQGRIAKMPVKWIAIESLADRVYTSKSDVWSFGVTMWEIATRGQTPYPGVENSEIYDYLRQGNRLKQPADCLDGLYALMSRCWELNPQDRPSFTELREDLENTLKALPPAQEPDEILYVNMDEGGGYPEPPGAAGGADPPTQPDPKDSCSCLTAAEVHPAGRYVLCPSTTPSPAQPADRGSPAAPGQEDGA

SMILES	pIC50 (BaF3 [1])	also measured
CCc1nc(C(N)=O)c(Nc2ccc(N3CCC(N4CCN(C)CC4)CC3)c(OC)c2)nc1NC1CCOCC1 [GILTERITINIB]	8.12	
CC(C)n1cc(C(=O)Nc2ccc(Oc3ccnc(-c4cnn(CCN5CCN(C)CC5)c4)c3)c(F)c2)c(=O)n(-c2ccc(F)cc2)c1=O	7.71	
CC(C)n1cc(C(=O)Nc2ccc(Oc3ccnc(NC(=O)C4CCC4)c3)c(F)c2)c(=O)n(-c2ccc(F)cc2)c1=O	7.36	
Nc1nc(Nc2ccc3c(c2)CC[C@@H](N2CCCC2)CC3)nn1-c1cc2c(nn1)-c1ccccc1CCC2 [BEMCENTINIB]	6.93	inhibition in vivo at 50 mg/kg (BaF3 [2]): 108%
C[C@@H](Oc1cc(-c2cnn(C3CCNCC3)c2)cnc1N)c1c(Cl)ccc(F)c1Cl [CRIZOTINIB]		inhibition in vivo at 50 mg/kg (U-87 MG): 93.3%
Cc1nn(C)cc1-c1cc(Oc2ccc(NC(=O)c3cn(C(C)C)c(=O)n(-c4ccc(F)cc4)c3=O)cc2F)ccn1	9.00	
CCC(=O)Nc1cc(Oc2ccc(NC(=O)c3cn(C(C)C)c(=O)n(-c4ccc(F)cc4)c3=O)cc2F)ccn1	> 9.70	
CC(C)n1cc(C(=O)Nc2ccc(Oc3ccnc(-c4cn[nH]c4)c3)c(F)c2)c(=O)n(-c2ccc(F)cc2)c1=O	> 9.70	AUC(0-t) at 24 h [3]: 31600 ng·h/mL; Tmax [4]: 1.67 h; Cmax [5]: 2570 ng/mL; half-life [6]: 18.2 h; AUC(0-inf) [7]: 52200 ng·h/mL
CC(C)n1cc(C(=O)Nc2ccc(Oc3ccnc(NC(=O)N4CCCC4)c3)c(F)c2)c(=O)n(-c2ccc(F)cc2)c1=O	> 9.70	
COc1cc(NC(=O)c2cn(C(C)C)c(=O)n(-c3ccc(F)cc3)c2=O)ccc1Oc1ccnc(-c2cnn(C)c2)c1		pIC50 [8]: < 6.00
CC(C)n1cc(C(=O)Nc2ccc(Oc3ccnc(NC(=O)N4CCOCC4)c3)c(F)c2)c(=O)n(-c2ccc(F)cc2)c1=O	> 9.70	
Cn1cc(-c2cnccc2Oc2ccc(NC(=O)c3c4c(cn(-c5ccccc5)c3=O)C(=O)CCC4)cc2)cn1		pIC50 [8]: < 6.00
CCc1ccc2c(c1)c(=O)c(C(=O)Nc1ccc(Oc3ccncc3-c3cnn(C)c3)cc1)c(C)n2C		pIC50 [8]: < 6.00
CC(C)n1cc(C(=O)Nc2ccc(Oc3ccnc(-c4cnn(CC(C)(C)O)c4)c3)c(F)c2)c(=O)n(-c2ccc(F)cc2)c1=O	8.55	
CC(C)n1cc(C(=O)Nc2ccc(Oc3ccnc(-c4cnn(C5CC5)c4)c3)c(F)c2)c(=O)n(-c2ccc(F)cc2)c1=O	8.20	
CC(=O)Nc1cc(Oc2ccc(NC(=O)c3cn(C(C)C)c(=O)n(-c4ccc(F)cc4)c3=O)cc2F)ccn1	> 9.70	
CCOc1cn(-c2ccc(F)cc2)nc1C(=O)Nc1ccc(Oc2ccncc2-c2cnn(C)c2)cc1		pIC50 [8]: < 6.00
CC(C)n1cc(C(=O)Nc2ccc(Oc3ccnc(-c4cnn(C)c4)c3)c(F)c2)c(=O)n(-c2ccc(F)cc2)c1=O	8.72	
Cn1cc(-c2cnccc2Oc2ccc(NC(=O)C3=C(c4ccccc4)c4ccccc4C3=O)cc2)cn1		pIC50 [8]: < 6.00
